Structures are written as SMILES. Read-outs that look alike come from different tables or passages of the source.

Data on three compounds can be found in US8575164B2, “Combination cancer therapy” (OSI Pharmaceuticals, LLC, priority 2005, dated 2013).

Experiment [1] concerns H292 human non-small cell lung carcinoma cell line. As to conditions: H292 cells in culture; single agent or combination.
Experiment [2] has the same test system. Particulars: H292 cells in culture; single agent or combination. The method, then:
The basis of the assay is a luminescent quantitation of ATP present in a cell culture plate well. In essence, the greater the number of viable cells in the well, the greater the level of ATP present. […] Results were calculated as a fraction of the DMSO controlled cells.
The source holds these as a separate data set.

A further experiment deals with colorectal cancer. As to conditions: cited from earlier work.

Take `C#Cc1cccc(Nc2ncnc3cc(OCCOC)c(OCCOC)cc23)c1` [TARCEVA™, [6,7-bis(2-methoxyethoxy)-4-quinazolin-4-yl]-(3-ethynylphenyl)amine]: the induction of apoptosis entry in experiment [1] is listed as “induced apoptosis”. For the same compound, the “inhibition of cell proliferation” value in experiment [2] is reported as “inhibited cell proliferation”.

As to `O=C1[O][Pt]2([NH][C@@H]3CCCC[C@H]3[NH]2)[O]C1=O` [oxaliplatin], in the experiment with colorectal cancer (combined with 5-FU and leucovorin, first-line treatment for colorectal cancer), the response rates is given as 25-40%.

As to `O=c1[nH]cc(F)c(=O)[nH]1` [5-fluorouracil], in the experiment on colorectal cancer (single-agent treatment for advanced colorectal cancer), the response rates result is “about 10%”.
